# Experimental data published in US7037489B2, “Skin external agents and drugs” (Kanebo Cosmetics, Inc., priority 1999, dated 2006).
# Counter-ions that a name gives are not always drawn.
# Columns and labels:
# [1] = test system: skin of Hartley strain guinea pig; test: Test 2 safety (sensitization) maximization test; type: in vivo; conditions: for Positivity: 3% induction, examined after 48 hours; for sensitizing potential: in words
# Experimental: Safety (sensitization) was evaluated by a maximization test. An area of 4×6 cm^2 of skin on the scapula of a Hartley strain guinea pig (female) weighing 350 to 400 g was shaved and given intradermal injections with each three injections in two lines according to the following procedures: • (1)each 0.05 mL of Freunds' Complete Adjuvant (hereinafter simply called FCA) was intradermally injected at each one spot in the right and left sites. • (2) each 0.05 mL of a 3% fumaric acid diester derivative solution in ethanol of as a test sample was intradermally injected at another each one spot in the right and left sites. • (3) to a 6% fumaric acid diester derivative solution in FCA as a test sample, the same amount of sterilized water was added and resultant emulsified solution was intradermally injected at a right side and a left side sites in an amount of 0.05 mL.
# At one week after the aforementioned procedures, the skin of the same sites was shaved and 10% of sodium lauryl sulfate in vaseline was applied to cause light inflammation. After 24 hours from the application, 0.2 mL of a 3% fumaric diester derivative solution in ethanol as a test sample, which was applied on a piece of gauze, was patched close on the same sites for 48 hours. On the 21st day after the intradermal injection, the abdominal area was shaved, to which a solution of a fumaric acid diester derivative in ethanolas a test sample, which was applied in a piece of gauze, was patched close for 24 hours. The symptoms in the skin were visually examined according to the following criteria after 48 hours.
# [2] = test system: G3PDH mRNA; test: Test Example 6 G3PDH mRNA in keratinocytes; type: cell-based; conditions: 24 hours, human keratinocytes
# Experimental: (§1) The amount of expression of amphiregulin in the keratinocytes was determined by the following test method. Cultured keratinocytes of human epidermis origin (ex Kurabo Corporation) were used. Keratinocyte suspension was adjusted to a concentration of 150×10^4 units/mL in an MCDB153 culture medium supplemented with BPE (bovine pituitary extract), insulin, ethanolamine, phosphoethanolamine, and hydrocortisone as growth promotors. Four milliliters of the cell suspension was inoculated to a 60 mm plate (ex Falcon Corporation). […] This plate was subjected to static culturing at 37° C. for 24 hours under an atmosphere consisting of 95% (v/v) air and 5% (v/v) carbon dioxide gas. Using a QIAGEN™ RNA kit, whole mRNA was extracted. […] The amount of each mRNA per total in the absence of the fumarate was measured as the control. The amount of mRNA in the presence of the fumarate was expressed in % relative to those of the control. (2) Results
# [3] = test system: dorsal skin of hairless mice; test: Test Example 9 depression of UV-induced epidermal hyperproliferation; type: in vivo; conditions: 0.5% in 50% ethanol, 4 weeks pre-application, UVB 0.15 J/cm^2, 4th day after the irradiation; mean values
# Experimental: The inhibition of epidermal hyperproliferation was investigated by the following test method in which the present fumarate was applied to the skin where epidermal hyperproliferation had been induced by UV irradiation Hairless mice of 10 weeks old at the beginning of the test were used with 5 mice per group. […] The animals were slaughtered on the 4th day after the irradiation and skin section were made. From the section, tissue section samples were prepared by HE staining. The samples prepared were photographed using an light microscope. In the microscopic photographs, the thickness of the epidermis was measured. Using the epidermis thickness at the beginning of the test as a standard, the mean values were compared between the control group and the treated groups.
# [4] = test system: hairless mouse dorsal skin (epidermal permeability barrier function disrupted by UVB); test: Test 1 epidermal permeability barrier function amelioration test (TEWL after UVB); type: in vivo, hairless mice (Hos: Hr-1); conditions: for TEWL change rate 3rd day / TEWL change rate 4th day: mean values
# Experimental: An effect of improving epidermal permeability barrier function by applying the agents on the skin of which epidermal permeability barrier function has been disrupted was evaluated by the following test method. Male hairless mice (Hos: Hr-1) of 10 weeks old at the beginning of the test were used with each 5 mice per group. Transepidermal water loss (TEWL) was measured as follows using a continuous perspiration measurement device, Hydrograph AMU-100 (ex K & S Co., Ltd.). […] The amount of water vapor in the nitrogen gas was measured before the gas was fed to the capsule and after it was recovered from the capsule. […] The TEWL of the hairless mouse dorsal skin was first measured at the beginning of the test. Subsequently, 0.05 mL of each sample was applied on an area of approximately 2.5 cm diameter in the dorsal skin of the hairless mice once a day from Monday to Friday (pre-application). Then, on the third day from the last day of the pre-application, the skin was irradiated once with ultraviolet B ray (UVB) at a dose of 0.15 J/cm^2. […] TEWL changes with the degree of disruption of the epidermal permeability barrier function. A higher value of TEWL change rate implies a greater degree of disruption of the epidermal permeability barrier function. In the case of the application of the base alone, disruption in the epidermal permeability barrier function by UVB was similar to that in the case of non-application.
# [5] = test system: amphiregulin mRNA; test: Test Example 6 inhibition of the expression of amphiregulin in keratinocytes; type: cell-based; conditions: 24 hours, human keratinocytes
# Experimental: as §1
# [6] = test system: dorsal skin of hairless mice; test: Test Example 8 inhibition of dry skin induced by retinoic acid (TEWL); type: in vivo
# Experimental: The effect of inhibiting dry skin was investigated by the following test method in which the present fumarate was applied to the dry skin induced by retinoic acid. Hairless mice of 10 weeks old at the beginning of the test were used with five mice per group. […] Subsequently, 0.05 mL of a 0.05% retinoic acid solution in 50% ethanol aqueous solution was applied once a day for 4 days. During these 4 days, retinoic acid was applied in the morning, and, some hours later in the afternoon, the sample was applied. […] In Comparative Example 5, a control sample comprising the base alone was used instead of the sample. In Comparative Example 6, the base was always applied. The TEWL values after the application of the samples are as shown below.
# [7] = test system: dorsal skin of aged hairless mice
# Experimental: The following test method was used in order to investigate inhibition of reduction in the epidermis thickness when the compound of the present invention was applied on aged skin.
# Experimental animals used included 2 groups of aged hairless mice of 33 weeks old at the beginning of the test with each 5 mice per group, and one group of 5 hairless mice of 9 weeks old at the beginning of the test.
# A sample was prepared by adding bis(diethylene glycol monoethyl ether) fumarate to a 50% ethanol aqueous solution (base) at a concentration of 0.5%. This sample was applied in an amount of 0.05 mL on the dorsal skin of hairless mice (in a diameter of approximately 2.5 cm) once a day for consecutive 5 days per week followed by 2 days interval. This schedule was repeated for 4 weeks. Subsequently, a portion of the skin was sampled and a frozen section was prepared. The thickness of the epidermis was measured by microscopic observation.
# [8] = test system: HB-EGF mRNA; test: Test Example 4 HB-EGF expression rate in keratinocytes (Northern blotting); type: cell-based, human; conditions: for Amount of mRNA, % relative to the control, HB-EGF: 24 hours, human keratinocytes
# Text: (§2) The HB-EGF expression rates were investigated by the following test methods where the compounds of the present invention were applied on the keratinocytes. Cultured keratinocytes of human epidermis origin, commercially available from Kurabo Corporation, were used. Keratinocyte susupension was adjusted to a concentration of 400×10^4 units/mL on an MCDB153 culture medium supplemented with BPE (bovine pituitary extract), insulin, ethanolamine, phosphoethanolamine, and hydrocortisone as growth promotors. Four milliliters of the cell suspension was inoculated to a 60 mm plate (ex Falcon Corporation). […] This plate was subjected to static culturing at 37° C. for 24 hours under an atmosphere consisting of 95% (v/v) air and 5% (v/v) carbon dioxide gas. Using a QIAGEN™ RNA kit, whole mRNA was extracted. […] The amount of each mRNA per total in the absence of the fumarate was measured as the control. The amount of mRNA in the presence of the fumarate was expressed in % relative to those of the control.
# [9] = test system: G3PDH mRNA; test: Test Example 4 G3PDH mRNA in keratinocytes (Northern blotting); type: cell-based; conditions: 24 hours, human keratinocytes
# Text: as §2
# [10] = test system: G3PDH mRNA; test: Test Example 7 G3PDH mRNA in keratinocytes with retinoic acid; type: cell-based, human; conditions: retinoic acid alone 1 μmol/L, 24 hours
# Experimental: (§3) The amount of amphireglurin expression in the presence of retinoic acid in the keratinocytes was determined by the following method.
# (§4) Cultured keratinocytes of human epidermis origin (ex Kurabo Corporation) were used.
# (§5) Keratinocyte suspensions was adjusted to a concentration of 400×10^4 units/mL in an MCDB153 culture medium supplemented with BPE (bovine pituitary extract), insulin, ethanolamine, phosphoethanolamine, and hydrocortisone as growth promotors. Four milliliters of the cell suspension was inoculated to a 60 mm plate (ex Falcon Corporation). Under an atmosphere of 95% (v/v) air and 5% (v/v) carbon dioxide gas, a confluent state was achieved by static culturing at 37° C. for 3 days, while refreshing the culture every other day.
# (§6) After removing the culture medium supernatant by suction, the culture medium was replaced with an MCDB 153 culture medium (containing insulin) to which bis(diethylene glycol monoethyl ether) fumarate at a final concentration of 300 μmol/L or dimethyl fumarate at 70 μmol/L, and optionally retinoic acid at 1 μmol/L had been added. This plate was subjected to static culturing at 37° C. for 24 hours under an atmosphere consisting of 95%(v/v) air and 5% (v/v) carbon dioxide gas. Using a QIAGEN™ RNA kit, whole mRNA was extracted.
# [11] = test system: amphiregulin mRNA; test: Test Example 7 inhibition of amphiregulin expression when used together with retinoic acid; type: cell-based, human; conditions: retinoic acid alone 1 μmol/L, 24 hours
# Experimental: as §3, §4, §5, §6
# [12] = Table 1, concentration 1% in 50% aqueous ethanol, 0.05 mL once a day, 3rd day after UVB 0.15 J/cm^2
# [13] = Table 1, concentration 1% in 50% aqueous ethanol, 4th day after UVB 0.15 J/cm^2
# [14] = 0.5% sample 5 days pre-application, then 0.05% retinoic acid once a day for 4 days with sample in the afternoon
compound,measurement,setting,value
CCOC(=O)/C=C/C(=O)OCC [Diethyl fumarate],Positivity,[1],90%
same,sensitizing potential,[1],sensitizating potential
CCOCCOCCOC(=O)/C=C/C(=O)OCCOCCOCC [bis(diethylene glycol monoethyl ether) fumarate],"Amount of mRNA, % relative to the control, G3PDH",[2]; 300 μmol/L,102%
same,Thickness of the epidermis,[3],61.6 μm
same,Positivity,[1],0%
same,sensitizing potential,[1],no sensitizing potential
same,TEWL change rate 3rd day,[4]; [12],3.25
same,TEWL change rate 4th day,[4]; [13],2.49
same,TEWL change rate 3rd day,"[4]; Table 2, first value column, concentration 0.001%",7.01
same,TEWL change rate 3rd day,"[4]; Table 2, first value column, concentration 0.01%",6.46
same,TEWL change rate 3rd day,"[4]; Table 2, first value column, concentration 0.1%",3.79
same,TEWL change rate 3rd day,"[4]; Table 2, first value column, concentration 1%",3.62
same,TEWL change rate 3rd day,"[4]; Table 2, second value column, concentration 0.001%",7.31
same,TEWL change rate 3rd day,"[4]; Table 2, second value column, concentration 0.01%",6.84
same,TEWL change rate 3rd day,"[4]; Table 2, second value column, concentration 0.1%",5.21
same,TEWL change rate 3rd day,"[4]; Table 2, second value column, concentration 1%",4.33
same,amelioration of epidermal permeability barrier function,"[4]; in words, compared to the base alone and diphenylethyl fumarate",clearly reduces disruption in the epidermal permeability barrier function by UVB
same,"Amount of mRNA, % relative to the control, Amphiregulin",[5]; 300 μmol/L,8%
same,Mean value of TEWL,[6]; [14],0.055 mg/cm^2/min.
same,Mean values of the epidermis thickness,"[7]; 33 weeks old hairless mice, 0.5% in 50% ethanol, 0.05 mL once a day 5 days per week for 4 weeks",20.96 μm
same,inhibition of thinning of the epidermis due to aging,"[7]; in words, compared to the non-treatment",thinning of the epidermis due to aging was clearly inhibited
same,"Amount of mRNA, % relative to the control, HB-EGF",[8]; 300 μmol/L,380%
same,induction of HB-EGF expression,"[8]; in words, 300 μmol/L",induced the expression of HB-EGF as strongly as dimethyl fumarate
same,"Amount of mRNA, % relative to the control, G3PDH",[9]; 300 μmol/L,98%
"COC(=O)/C=C/C(=O)OC [Dimethyl fumarate, reference compound]","Amount of mRNA, % relative to the control, G3PDH",[2]; 70 μmol/L,98%
same,Thickness of the epidermis,[3],40.4 μm
same,TEWL change rate 3rd day,[4]; [12],3.24
same,TEWL change rate 4th day,[4]; [13],2.50
same,"Amount of mRNA, % relative to the control, Amphiregulin",[5]; 70 μmol/L,39%
same,Mean value of TEWL,[6]; [14],0.063 mg/cm^2/min.
same,"Amount of mRNA, % relative to the control, HB-EGF",[8]; 50 μmol/L,470%
same,"Amount of mRNA, % relative to the control, G3PDH",[9]; 50 μmol/L,105%
CC1=C(/C=C/C(C)=C/C=C/C(C)=C/C(=O)O)C(C)(C)CCC1 [Retinoic acid],"Amount of mRNA, % relative to the control, G3PDH",[10],105%
same,Mean value of TEWL,"[6]; 0.05% retinoic acid once a day for 4 days, base alone instead of the sample (no fumarate)",0.110 mg/cm^2/min.
same,"Amount of mRNA, % relative to the control, Amphiregulin",[11],300%
COCCOC(=O)/C=C/C(=O)OCCOC [bis(ethylene glycol monomethyl ether) fumarate],Positivity,[1],90%
same,sensitizing potential,[1],sensitizating potential
Diphenylethyl fumarate [reference compound],TEWL change rate 3rd day,"[4]; Table 1, concentration printed '.1I' %, 3rd day after UVB",7.82
same,TEWL change rate 4th day,"[4]; Table 1, concentration printed '.1I' %, 4th day after UVB",6.57
